A short description of data set [1]: in vitro drug release study (Franz diffusion cell, pH 7.4). The class given is physicochemical. The conditions noted are these: pH 7.4, 37 °C. As for the experimental part:
• Equipment: Franz diffusion cell shown in FIG. 38. • Dissolution medium: Physiological buffer solution pH (7.4) • Temperature: 37±0.2 °C. • Rotational speed: 100 rpm • Mode of sample analysis for Salbutamol sulphate—HPLC-UV analysis using RP C18 250X 4.6 mm; 5-micron, 100 A column and 87 parts of ammonium acetate buffer (pH 3.0, 20 mM) with sodium hexane sulfonate in combination with 13 parts of acetonitrile as a mobile phase. • Mode of sample analysis for Lorazepam—UV analysis, absorbance 280 nm • Mode of sample analysis for Cetirizine dihydrochloride—UV analysis, absorbance 276 nm • Mode of sample analysis for Ondansetran—UV analysis, absorbance 249 nm
Drug release at early time points was used to check the quick release characteristics. Salbutamol sulphate, Lorazepam and Cetirizine dihydrochloride which are soluble drugs released more than 80% achieving the quick release characteristics. Ondansetran which is a poorly soluble drug released about 30% in 20 minutes. Probably owing to its slow rate of dissolution. All drugs were analysed using appropriate UV/HPLC method as described in EXAMPLE 3. (FIGS. 39, 40, 41, 42, 43, 44)

Data set [2] is described as follows: drug classification and dissolution in the fabrication solvent. Conditions: fabrication stage. The class given is physicochemical. How it is done: Salbutamol sulphate (Dose per patch 2.5 mg) and Lorazepam (Dose per patch 4 mg) are BCS Class I drugs, Cetirizine dihydrochloride (Dose per patch 5 mg) is BCS class III and Ondansetron Hydrochloride (Dose per patch 16 mg) is BCS Class II. The various drugs were studied for suitability of incorporation into the Dissolving microneedle formulation.

Where a name gives a salt, the structure may show the parent alone.

In the case of `O=C(O)COCCN1CCN(C(c2ccccc2)c2ccc(Cl)cc2)CC1` (centres unmarked) [Cetirizine dihydrochloride], the Cetirizine dihydrochloride released entry in data set [1] (batch MN01/02/83A, early time points, UV 276 nm) is “more than 80%”.
`O=C1Nc2ccc(Cl)cc2C(c2ccccc2Cl)=NC1O` (centres unmarked) [Lorazepam]: the Lorazepam released result in data set [1] (batch MN01/02/82, early time points, UV 280 nm) is on record as “more than 80%”.
Consider `Cc1nccn1CC1CCc2c(c3ccccc3n2C)C1=O` (centres unmarked) [Ondansetron Hydrochloride], for which the Ondansetran released entry in data set [1] (batch MN01/02/84, in 20 minutes, UV 249 nm) is “about 30%”. For the same molecule, in data set [2], the “dissolution of drug in the aqueous solvent during fabrication” value is given as “remained dispersed”.
Consider `CC(C)(C)NCC(O)c1ccc(O)c(CO)c1` (centres unmarked) [Salbutamol sulphate], for which the Salbutamol sulphate released entry in data set [1] (batches MN01/02/64, MN01/02/77/A, MN01/02/77/B, early time points, HPLC-UV) is recorded as “more than 80%”.

These data come from patent US20260373434A1, “QUICK DISSOLVABLE MICRONEEDLE WITH ENHANCED MECHANICAL STRENGTH, ITS COMPOSITIONS AND METHOD FOR FABRICATION THEREOF” (TRANSFORM SCITECH PRIVATE LIMITED, priority 2023, published 2026).
